# Measured values taken from PubChem BioAssay AID2060622 (Molecular Pharmacology Branch, DTP, NCI, 2025).
# “And” between values parts separate entries of the source, which are not always exact repeats. Equal values may be shown once.
# Tested on: 242566-281-R-J2-PDC complex spheroid viability
# Experiment: Anticancer human tumor 242566-281-R-J2-PDC patient-derived pancreatic carcinoma cell line growth inhibition [CLK]
# Conditions: for viability, T/C: stronger effect = lower value
# Excerpt: A high-throughput screen of multi-cell type tumor spheroids was designed to identify active combinations of […] and targeted small molecules. Complex spheroids include a stromal component modeled by human endothelial cells (HUVEC) and fibroblasts modeled by human mesenchymal stem cells (MSCs). The concentration ranges selected for each drug and investigational agent were based upon clinically achievable concentrations if the clinical Cmax of the agent was known.
# Compounds. The drugs and investigational agents: cirtuvivint (SM08502; NSC835563), CC-671 (NSC850746), vemurafenib (NSC761431), tapotoclax (NSC804041), sotorasib (NSC818433), adagrasib (NSC831453), MRTX-1133 (NSC836407), BAY2416964 (NSC825713), copanlisib (NSC816437), inavolisib (NSC800729), abemaciclib (NSC768073), osimertinib (NSC779217), entinostat (NSC756642), eltanexor (KPT-8602, NSC794443), venetoclax (NSC766270), ceralasertib (NSC777638), bortezomib (NSC756655), olaparib (NSC753686), talazoparib (NSC767125), alisertib (NSC759677), peposertib (NSC802822), gemcitabine (NSC613327), 5-fluorouracil (NSC19893), SN-38 (NSC673596), oxaliplatin (NSC266046), paclitaxel (NSC125973), and doxorubicin (NSC123127), were obtained from the National Cancer Institute (NCI) Developmental Therapeutics Program Chemical Repository. The FDA-approved anticancer drug set is available from the Developmental Therapeutics Program at https://dtp.cancer.gov/organization/dscb/obtaining/available plates.htm. […] The stock solutions were prepared in dimethyl sulfoxide (DMSO, Sigma-Aldrich, St. Louis, MO, cat. D2650), except for the platinum complexes which were prepared in saline (Quality Biological, Gaithersburg, MD, cat. 114-055-101), at 800-fold the tested concentration and stored at -70 degrees C prior to their use. All drugs and investigational agents were tested over a range starting from a high concentration at or near the clinical Cmax and decreasing in half-log increments. If the clinical Cmax for an agent had not been determined, the highest concentration tested was 10 microM.
# Cell Culture. All cells were maintained in an incubator at 37 degrees C and 5% CO2 with 95% humidity. The PDC lines were cultured according to standard operating procedures established by the NCI PDMR. Briefly, all PDCs were thawed and cultured in Matrigel-coated flasks prepared with a working solution of 1X Ham's F-12 nutrient mix, without supplementation (Invitrogen, Waltham, MA, cat. 11765054), 100 U/mL penicillin-streptomycin (Invitrogen, cat. 15140122), and 2.5% Matrigel (Corning Inc., Corning, NY, cat. 354248) for the first three passages. The 947758-054-R-J2-PDC line was cultured in 6B/Colon 1A media, which includes advanced DMEM/F-12 (Thermo Fisher Scientific, cat. 12634028), 10 mM HEPES (Thermo Fisher Scientific, cat. 15630080), 1X GlutaMAX supplement (Thermo Fisher Scientific, cat. 35050061), 0.1 mg/mL primocin (InvivoGen, cat. ant-pm-2), 10% defined fetal bovine serum, heat inactivated (HyClone Laboratories Inc., cat. SH30070.03HI), 1.25 mM N-Acetyl-L-cysteine (Sigma-Aldrich, cat. A9165), 10 mM nicotinamide (Sigma-Aldrich, cat. N0636), 1X B-27 supplement (Thermo Fisher Scientific, cat. 17504044), 1X N-2 supplement (Thermo Fisher Scientific, cat. 17502048), and 10 microM Y-27632 dihydrochloride (Tocris Bioscience, cat. 1254). The 876862-298-R-J1-PDC was cultured in 6E media, which includes all 6B/Colon 1A media components plus 50% L-WRN conditioned media (ATCC, cat. CRL-3276), 50 ng/mL recombinant human EGF recombinant protein (hEGF; Thermo Fisher Scientific, cat. PHG0311), 10 ng/mL recombinant human fibroblast growth factor 10 (hGFG-10; PeproTech, cat. 100-26), 1 ng/mL recombinant human fibroblast growth factor 2 (hFGF-2; PeproTech, cat. 100-18B), and 1 µM prostaglandin E2 (PGE2; Tocris, cat. 2296). The 227483-062-R1-J1-PDC line was cultured in Panc media, containing all 6E components except hFGF-2, with the addition of 500 nM SB-431542 (Selleckchem, cat. S1067) and 10 nM gastrin (Tocris, cat. 3006). […]
# [1] = curve of first compound, second compound 0.0316 µM
# [2] = curve of first compound, second compound 0.1 µM
# [3] = curve of first compound, second compound 0.316 µM
# [4] = curve of first compound, second compound 1 µM
# [5] = curve of first compound, second compound 3.16 µM
# [6] = curve of first compound, second compound 10 µM
# [7] = second compound 0.0316 µM, first compound 0.0316 µM
# [8] = second compound 0.0316 µM, first compound 0.1 µM
# [9] = second compound 0.0316 µM, first compound 0.316 µM
# [10] = second compound 0.0316 µM, first compound 1 µM
# [11] = second compound 0.0316 µM, first compound 3.16 µM
# [12] = second compound 0.0316 µM, first compound 10 µM
# [13] = second compound 0.1 µM, first compound 0.0316 µM
# [14] = second compound 0.1 µM, first compound 0.1 µM
# [15] = second compound 0.1 µM, first compound 0.316 µM
# [16] = second compound 0.1 µM, first compound 1 µM
# [17] = second compound 0.1 µM, first compound 3.16 µM
# [18] = second compound 0.1 µM, first compound 10 µM
# [19] = second compound 0.316 µM, first compound 0.0316 µM
# [20] = second compound 0.316 µM, first compound 0.1 µM
# [21] = second compound 0.316 µM, first compound 0.316 µM
# [22] = second compound 0.316 µM, first compound 1 µM
# [23] = second compound 0.316 µM, first compound 3.16 µM
# [24] = second compound 0.316 µM, first compound 10 µM
# [25] = second compound 1 µM, first compound 0.0316 µM
# [26] = second compound 1 µM, first compound 0.1 µM
# [27] = second compound 1 µM, first compound 0.316 µM
# [28] = second compound 1 µM, first compound 1 µM
# [29] = second compound 1 µM, first compound 3.16 µM
# [30] = second compound 1 µM, first compound 10 µM
# [31] = second compound 3.16 µM, first compound 0.0316 µM
# [32] = second compound 3.16 µM, first compound 0.1 µM
# [33] = second compound 3.16 µM, first compound 0.316 µM
# [34] = second compound 3.16 µM, first compound 1 µM
# [35] = second compound 3.16 µM, first compound 3.16 µM
# [36] = second compound 3.16 µM, first compound 10 µM
# [37] = second compound 10 µM, first compound 0.0316 µM
# [38] = second compound 10 µM, first compound 0.1 µM
# [39] = second compound 10 µM, first compound 0.316 µM
# [40] = second compound 10 µM, first compound 1 µM
# [41] = second compound 10 µM, first compound 3.16 µM
# [42] = second compound 10 µM, first compound 10 µM
# 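Note: spheroids exposed to compounds for 7 days before readout.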
# 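Throughout, for viability, T/C: 100% = DMSO vehicle control wells.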
smiles,measurement,setting,value
CC(Nc1ccc2c(c1)OCCn1cc(N3C(=O)OCC3C(F)F)nc1-2)C(N)=O (stereo not drawn) + CN1CCN(c2cc(C(=O)Nc3cc4cc(-c5cnn(C)c5)ccc4cn3)ccn2)CC1,IC50,[1],829 nM
same,IC50,[2],428 nM
same,IC50,[3],< 31.6 nM
same,IC50,[4],< 31.6 nM
same,IC50,[5],< 31.6 nM
same,IC50,[6],< 31.6 nM
same,"viability, T/C",[7],98.6%
same,"viability, T/C",[8],85.9%
same,"viability, T/C",[9],66.1%
same,"viability, T/C",[10],47.1%
same,"viability, T/C",[11],30.2%
same,"viability, T/C",[12],19.6%
same,"viability, T/C",[13],89.7%
same,"viability, T/C",[14],71.6%
same,"viability, T/C",[15],54.1%
same,"viability, T/C",[16],37.7%
same,"viability, T/C",[17],27.5%
same,"viability, T/C",[18],15.9%
same,"viability, T/C",[19],30.8%
same,"viability, T/C",[20],28.4%
same,"viability, T/C",[21],24%
same,"viability, T/C",[22],16.5%
same,"viability, T/C",[23],11.1%
same,"viability, T/C",[24],6.49%
same,"viability, T/C",[25],3.7%
same,"viability, T/C",[26],3.4%
same,"viability, T/C",[27],2.95%
same,"viability, T/C",[28],2.95%
same,"viability, T/C",[29],2.35%
same,"viability, T/C",[30],1.83%
same,"viability, T/C",[31],6.09%
same,"viability, T/C",[32],5.94%
same,"viability, T/C",[33],5.25%
same,"viability, T/C",[34],4.35%
same,"viability, T/C",[35],3.81%
same,"viability, T/C",[36],3.86%
same,"viability, T/C",[37],2.15%
same,"viability, T/C",[38],2.04%
same,"viability, T/C",[39],1.6%
same,"viability, T/C",[40],1.88%
same,"viability, T/C",[41],1.85%
same,"viability, T/C",[42],1.04%
COC1C=CCC(C)C(C)S(=O)(=O)NC(=O)c2ccc3c(c2)N(CC2CCC21)CC1(CCCc2cc(Cl)ccc21)CO3 (stereo not drawn) + CN1CCN(c2cc(C(=O)Nc3cc4cc(-c5cnn(C)c5)ccc4cn3)ccn2)CC1,IC50,[1],5300 nM
same,IC50,[2],3440 nM
same,IC50,[3],< 31.6 nM
same,IC50,[4],< 31.6 nM
same,IC50,[5],< 31.6 nM
same,IC50,[6],< 31.6 nM
same,"viability, T/C",[7],93%
same,"viability, T/C",[8],119%
same,"viability, T/C",[9],101%
same,"viability, T/C",[10],81.6%
same,"viability, T/C",[11],78.9%
same,"viability, T/C",[12],20.3%
same,"viability, T/C",[13],93.2%
same,"viability, T/C",[14],94.1%
same,"viability, T/C",[15],87.8%
same,"viability, T/C",[16],66.6%
same,"viability, T/C",[17],56.6%
same,"viability, T/C",[18],16.5%
same,"viability, T/C",[19],37.5%
same,"viability, T/C",[20],34.1%
same,"viability, T/C",[21],28.7%
same,"viability, T/C",[22],16.1%
same,"viability, T/C",[23],12.8%
same,"viability, T/C",[24],3.62%
same,"viability, T/C",[25],4.66%
same,"viability, T/C",[26],4.57%
same,"viability, T/C",[27],3.7%
same,"viability, T/C",[28],4.79%
same,"viability, T/C",[29],3.13%
same,"viability, T/C",[30],2.17%
same,"viability, T/C",[31],7.61%
same,"viability, T/C",[32],7.11%
same,"viability, T/C",[33],6.63%
same,"viability, T/C",[34],7.11%
same,"viability, T/C",[35],6.71%
same,"viability, T/C",[36],4.96%
same,"viability, T/C",[37],1.98%
same,"viability, T/C",[38],1.96%
same,"viability, T/C",[39],1.79%
same,"viability, T/C",[40],1.93%
same,"viability, T/C",[41],1.82%
same,"viability, T/C",[42],0.48%
COC1C=CCC(C)C(C)S(=O)(=O)NC(=O)c2ccc3c(c2)N(CC2CCC21)CC1(CCCc2cc(Cl)ccc21)CO3 (stereo not drawn) + CNC(=O)c1ccc(Nc2nc(OC3CCCC3)c3c(-c4ccc5nc(C)oc5c4)c[nH]c3n2)c(OC)c1,IC50,[1],5240 nM
same,IC50,[2],6170 nM
same,IC50,[3],404 nM
same,IC50,[4],139 nM
same,IC50,[5],< 31.6 nM
same,IC50,[6],< 31.6 nM
same,"viability, T/C",[7],95.8%
same,"viability, T/C",[8],91.9%
same,"viability, T/C",[9],72%
same,"viability, T/C",[10],84.9%
same,"viability, T/C",[11],67.5%
same,"viability, T/C",[12],29.1%
same,"viability, T/C",[13],94.7%
same,"viability, T/C",[14],74.8%
same,"viability, T/C",[15],65.4%
same,"viability, T/C",[16],84.3%
same,"viability, T/C",[17],91.4%
same,"viability, T/C",[18],26.8%
same,"viability, T/C",[19],84.9%
same,"viability, T/C",[20],64.7%
same,"viability, T/C",[21],50.6%
same,"viability, T/C",[22],42.3%
same,"viability, T/C",[23],39.1%
same,"viability, T/C",[24],25.9%
same,"viability, T/C",[25],64.9%
same,"viability, T/C",[26],55.3%
same,"viability, T/C",[27],38.5%
same,"viability, T/C",[28],29.1%
same,"viability, T/C",[29],25.6%
same,"viability, T/C",[30],19.6%
same,"viability, T/C",[31],49.6%
same,"viability, T/C",[32],40.1%
same,"viability, T/C",[33],30.7%
same,"viability, T/C",[34],20.8%
same,"viability, T/C",[35],18.1%
same,"viability, T/C",[36],14.2%
same,"viability, T/C",[37],42.9%
same,"viability, T/C",[38],41.2%
same,"viability, T/C",[39],30.8%
same,"viability, T/C",[40],18.3%
same,"viability, T/C",[41],13.5%
same,"viability, T/C",[42],12.1%
CC1(C)CCC(CN2CCN(c3ccc(C(=O)NS(=O)(=O)c4ccc(NCC5CCOCC5)c([N+](=O)[O-])c4)c(Oc4cnc5[nH]ccc5c4)c3)CC2)=C(c2ccc(Cl)cc2)C1,"viability, T/C",compound 0.0316 µM,110% and 84.2%
same,"viability, T/C",compound 0.1 µM,89.7% and 93.9%
same,"viability, T/C",compound 0.316 µM,109% and 102%
same,"viability, T/C",compound 1 µM,117% and 132%
same,"viability, T/C",compound 3.16 µM,109% and 122%
same,"viability, T/C",compound 10 µM,14.1% and 73.1%
same,IC50,curve of compound,6410 nM and > 10000 nM
